The IC50 is the concentration needed to halve the response being measured.

For 17 compounds, IC50 results are on record in US20160046618A1, “Cyclopropyl Fused Thiazin-2-Amine Compounds as Beta-Secretase Inhibitors and Methods of Use” (AMGEN INC., priority 2014, published 2016).

For test [1], the target named is human recombinant BACE1 (Homo sapiens (Human), UniProt P56817). The test can be described thus: In vitro enzymatic BACE1 FRET assay. Type of test: biochemical. Conditions: read-out: IC50 IP (μM) BACE1 enzyme. In short, it runs like this: (§1)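 Ni-NTA-purified recombinant enzyme incubated 1 h with 50 nM FRET peptide substrate (fluorophore and quencher flanking the BACE cleavage site). Reaction stopped with Tris buffer raising pH to neutrality; cleavage-released fluorescence read at ex 488/em 590 nm.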

Test [2] deals with human recombinant BACE2 (Homo sapiens (Human), UniProt Q9Y5Z0). The test can be described thus: In vitro enzymatic BACE2 FRET assay. Type of test: biochemical. Conditions: read-out: IC50 IP (μM) BACE2 enzyme. In short, it runs like this:
as §1

Test [3] deals with Recombinant Cat D (Homo sapiens (Human), UniProt P07339). As to the kind of experiment: In vitro enzymatic Cathepsin D (Cat D) FRET assay. The format is biochemical. Conditions: read-out: IC50 IP (μM) CatD. The gist of the method:
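CHO-expressed enzyme; buffer 0.05 M citrate pH 3.5, 5 mM CHAPS, 10% DMSO final. Start with FRET substrate 20 nM, 1 h incubation, Tris stop (pH to neutral), fluorescence ex 500 nm/em 580 nm.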

Test [4] concerns Aβ40 in conditioned medium of cells stably expressing Amyloid Precursor Protein (APP). As to the kind of experiment: In vitro BACE-1 cell-based assay (Aβ40 sandwich ELISA). The following applies: read-out: IC50 IP (μM) BACE1 cell. The gist of the method: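 APP-stable cells, pre-cultured 24 h at 37° C in DMEM/10% FBS, were treated 24 h with compound in a 10-point series starting at 100 μM or 10 μM (0.1% DMSO final). Secreted Aβ40 in conditioned medium was measured by pAb40/biotin-6E10 sandwich ELISA with Europium time-resolved fluorescence; IC50 from percent inhibition versus concentration.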
For orientation: In an ELISA, binding on a coated surface is turned into a signal by an enzyme label.

Recombinant Cat D, sequence (P07339 65-412): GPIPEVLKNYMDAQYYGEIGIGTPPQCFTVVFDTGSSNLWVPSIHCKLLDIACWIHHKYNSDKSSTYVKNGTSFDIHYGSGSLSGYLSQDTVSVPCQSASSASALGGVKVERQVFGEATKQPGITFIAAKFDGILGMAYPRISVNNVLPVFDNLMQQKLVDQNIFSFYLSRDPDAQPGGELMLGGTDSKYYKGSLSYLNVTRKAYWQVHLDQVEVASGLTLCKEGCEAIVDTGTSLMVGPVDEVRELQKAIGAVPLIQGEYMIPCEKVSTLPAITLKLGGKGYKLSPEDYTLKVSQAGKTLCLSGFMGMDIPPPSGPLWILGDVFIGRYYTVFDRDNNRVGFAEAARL
human recombinant BACE2, sequence (Q9Y5Z0 63-518): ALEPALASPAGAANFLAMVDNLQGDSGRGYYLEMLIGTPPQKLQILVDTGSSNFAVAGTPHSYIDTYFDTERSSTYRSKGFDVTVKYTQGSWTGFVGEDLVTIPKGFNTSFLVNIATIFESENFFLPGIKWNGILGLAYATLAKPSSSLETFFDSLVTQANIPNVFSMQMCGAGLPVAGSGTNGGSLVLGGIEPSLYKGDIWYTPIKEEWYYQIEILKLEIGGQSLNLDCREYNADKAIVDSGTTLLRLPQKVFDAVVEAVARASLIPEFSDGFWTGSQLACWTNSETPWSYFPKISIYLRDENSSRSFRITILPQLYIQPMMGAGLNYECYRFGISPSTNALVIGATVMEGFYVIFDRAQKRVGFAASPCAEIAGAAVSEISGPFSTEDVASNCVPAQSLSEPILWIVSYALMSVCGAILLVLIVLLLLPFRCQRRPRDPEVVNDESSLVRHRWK
human recombinant BACE1, sequence (P56817 46-501): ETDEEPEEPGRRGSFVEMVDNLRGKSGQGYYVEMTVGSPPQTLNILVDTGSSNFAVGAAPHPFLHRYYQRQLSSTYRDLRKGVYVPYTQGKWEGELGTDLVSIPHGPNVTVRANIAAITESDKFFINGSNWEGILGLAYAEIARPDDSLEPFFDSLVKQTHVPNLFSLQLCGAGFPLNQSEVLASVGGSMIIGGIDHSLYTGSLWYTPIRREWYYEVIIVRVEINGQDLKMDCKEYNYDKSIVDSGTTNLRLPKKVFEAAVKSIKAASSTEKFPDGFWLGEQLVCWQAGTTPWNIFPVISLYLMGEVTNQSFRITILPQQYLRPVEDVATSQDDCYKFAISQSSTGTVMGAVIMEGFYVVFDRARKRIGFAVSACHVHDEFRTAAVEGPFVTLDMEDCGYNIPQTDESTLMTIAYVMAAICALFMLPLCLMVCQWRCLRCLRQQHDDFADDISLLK

As to `C#CCOc1cnc2c(Nc3cnc(OC)c([C@@]4(C)N=C(N)S[C@@]5(CF)C[C@H]54)c3)nccc2n1` [Example 611, N-(5-((1S,5S,6S)-3-amino-1-(fluoromethyl)-5-methyl-2-thia-4-azabicyclo[4.1.0]hept-3-en-5-yl)-6-methoxy-3-pyridinyl)-2-(2-propyn-1-yloxy)pyrido[3,4-b]pyrazin-5-amine], the IC50 was 0.00663 µM in test [1], 0.208 µM in test [2], > 400 µM in test [3] and 0.00649 µM in test [4].

Consider `[2H]C([2H])([2H])C#CC([2H])([2H])Oc1cnc2c(Nc3cnc(F)c([C@@]4(C)N=C(N)S[C@@]5(CF)C[C@H]54)c3)nccc2n1` [Example 613, N-(5-((1S,5S,6S)-3-amino-1-(fluoromethyl)-5-methyl-2-thia-4-azabicyclo[4.1.0]hept-3-en-5-yl)-6-fluoro-3-pyridinyl)-2-((~2~H_5_)-2-butyn-1-yloxy)pyrido[3,4-b]pyrazin-5-amine], for which the IC50 stood at 0.000555 µM in test [1], 0.0123 µM in test [2], 709 µM in test [3] and 0.00098 µM in test [4].

Consider `Cc1nc(OCC(F)(F)F)cnc1C(=O)Nc1cc(F)c(F)c([C@@]2(C)N=C(N)S[C@@]3(CF)C[C@H]32)c1` [Example 614, N-(3-((1S,5S,6S)-3-amino-1-(fluoromethyl)-5-methyl-2-thia-4-azabicyclo[4.1.0]hept-3-en-5-yl)-4,5-difluorophenyl)-3-methyl-5-(2,2,2-trifluoroethoxy)-2-pyrazinecarboxamide], for which the IC50 in test [1] was found to be 0.00361 µM; in test [2] it was 0.101 µM; in test [3], 340 µM; in test [4], 0.0755 µM.

Turning to `Cc1nc(OCC(F)(F)F)cnc1C(=O)Nc1cc(F)c(F)c([C@@]2(C)N=C(N)S[C@@]3(C(F)F)C[C@@H]23)c1` [Example 615, N-(3-((1S,5S,6S)-3-amino-1-(difluoromethyl)-5-methyl-2-thia-4-azabicyclo[4.1.0]hept-3-en-5-yl)-4,5-difluorophenyl)-3-methyl-5-(2,2,2-trifluoroethoxy)-2-pyrazinecarboxamide], the IC50 in test [1] stood at 0.00273 µM; in test [2], 0.117 µM; in test [3], 102 µM; in test [4] it was 0.0788 µM.

For `C#C[C@H](C)Oc1cnc(C(=O)Nc2cc(F)c(F)c([C@@]3(C)N=C(N)S[C@@]4(C(F)F)C[C@@H]34)c2)c(C)n1` [Example 617, N-(3-((1S,5S,6S)-3-amino-1-(difluoromethyl)-5-methyl-2-thia-4-azabicyclo[4.1.0]hept-3-en-5-yl)-4,5-difluorophenyl)-3-methyl-5-(((1S)-1-methyl-2-propyn-1-yl)oxy)-2-pyrazinecarboxamide], the IC50 in test [1] was 0.00357 µM; in test [2], 0.158 µM; in test [3], > 400 µM; in test [4], 0.0652 µM.

Consider `COC[C@]12C[C@H]1[C@@](C)(c1cc(NC(=O)c3ncc(OCC(F)(F)F)nc3C)cc(F)c1F)N=C(N)S2` [Example 618, N-(3-((1S,5S,6S)-3-amino-1-(methoxymethyl)-5-methyl-2-thia-4-azabicyclo[4.1.0]hept-3-en-5-yl)-4,5-difluorophenyl)-3-methyl-5-(2,2,2-trifluoroethoxy)-2-pyrazinecarboxamide], for which the IC50 is 0.00606 µM in test [1], 0.0161 µM in test [2], 1020 µM in test [3] and 0.0557 µM in test [4].

Regarding `C#C[C@H](C)Oc1cnc(C(=O)Nc2ccc(F)c([C@@]3(C)N=C(N)S[C@@]4(C(F)F)C[C@@H]34)c2)c(C)n1` [Example 619, N-(3-((1S,5S,6S)-3-amino-1-(difluoromethyl)-5-methyl-2-thia-4-azabicyclo[4.1.0]hept-3-en-5-yl)-4-fluorophenyl)-3-methyl-5-(((1S)-1-methyl-2-propyn-1-yl)oxy)-2-pyrazinecarboxamide], the IC50 is 0.00439 µM in test [1], 0.175 µM in test [2], 655 µM in test [3] and 0.0352 µM in test [4].

Consider `COC[C@]12C[C@H]1[C@@](C)(c1cc(NC(=O)c3ncc(OCC(F)(F)F)nc3C)ccc1F)N=C(N)S2` [Example 620, N-(3-((1S,5S,6S)-3-amino-1-(methoxymethyl)-5-methyl-2-thia-4-azabicyclo[4.1.0]hept-3-en-5-yl)-4-fluorophenyl)-3-methyl-5-(2,2,2-trifluoroethoxy)-2-pyrazinecarboxamide], for which the IC50 in test [1] was 0.00832 µM; in test [2], 0.245 µM; in test [3], > 400 µM; in test [4] it was 0.0437 µM.

As for `C#C[C@H](C)Oc1cnc(C(=O)Nc2ccc(F)c([C@@]3(C)N=C(N)S[C@@]4(COC)C[C@H]43)c2)c(C)n1` [Example 621, N-(3-((1S,5S,6S)-3-amino-1-(methoxymethyl)-5-methyl-2-thia-4-azabicyclo[4.1.0]hept-3-en-5-yl)-4-fluorophenyl)-3-methyl-5-(((1S)-1-methyl-2-propyn-1-yl)oxy)-2-pyrazinecarboxamide], the IC50 in test [1] came out at 0.0113 µM; in test [2], 0.148 µM; in test [3] it was 710 µM; in test [4], 0.0197 µM.

For the compound `Cc1nc(OCC(F)(F)F)cnc1C(=O)Nc1ccc(F)c([C@@]2(C)N=C(N)S[C@@]3(C(F)F)C[C@@H]23)c1` [Example 623, N-(3-((1S,5S,6S)-3-amino-1-(difluoromethyl)-5-methyl-2-thia-4-azabicyclo[4.1.0]hept-3-en-5-yl)-4-fluorophenyl)-3-methyl-5-(2,2,2-trifluoroethoxy)-2-pyrazinecarboxamide], the IC50 in test [1] turned out to be 0.00575 µM; in test [2] it was 0.0485 µM; in test [3] it was 641 µM; in test [4], 0.0671 µM.

With `COc1ncc(NC(=O)c2ccc(Cl)cn2)cc1[C@@]1(C)N=C(N)S[C@@]2(CF)C[C@H]21` [Example 624, N-(5-((1S,5S,6S)-3-amino-1-(fluoromethyl)-5-methyl-2-thia-4-azabicyclo[4.1.0]hept-3-en-5-yl)-6-methoxy-3-pyridinyl)-5-chloro-2-pyridinecarboxamide], the IC50 was 0.0298 µM in test [1], 0.00394 µM in test [2], > 400 µM in test [3] and 0.0435 µM in test [4].

Take `C#CCOc1cnc2c(Nc3cnc(OC)c([C@@]4(C)N=C(N)S[C@@]5(CF)C[C@H]54)c3)ncnc2c1` [Example 625, N-(5-((1S,5S,6S)-3-amino-1-(fluoromethyl)-5-methyl-2-thia-4-azabicyclo[4.1.0]hept-3-en-5-yl)-6-methoxy-3-pyridinyl)-7-(2-propyn-1-yloxy)pyrido[3,2-d]pyrimidin-4-amine]: the IC50 is 0.0309 µM in test [1], 0.401 µM in test [2], 730 µM in test [3] and 0.014 µM in test [4].

`COc1ncc(Nc2nccc3nc(OCc4ncco4)cnc23)cc1[C@@]1(C)N=C(N)S[C@@]2(CF)C[C@H]21` [Example 626, N-(5-((1S,5S,6S)-3-amino-1-(fluoromethyl)-5-methyl-2-thia-4-azabicyclo[4.1.0]hept-3-en-5-yl)-6-methoxy-3-pyridinyl)-2-(1,3-oxazol-2-ylmethoxy)pyrido[3,4-b]pyrazin-5-amine]: the IC50 in test [1] turned out to be 0.0164 µM; in test [2], 0.2 µM; in test [3], 1080 µM; in test [4] it was 0.00509 µM.

As to `COC[C@]12C[C@H]1[C@@](C)(c1cc(Nc3nccc4cc(OC)cnc34)cc(F)c1F)N=C(N)S2` [Example 629, N-(3-((1S,5S,6S)-3-amino-1-(methoxymethyl)-5-methyl-2-thia-4-azabicyclo[4.1.0]hept-3-en-5-yl)-4,5-difluorophenyl)-3-methoxy-1,7-naphthyridin-8-amine], the 50% inhibitory concentration (IC50) in test [1] amounted to 0.0365 µM; in test [2], 0.0582 µM; in test [3], 2880 µM; in test [4], 0.0205 µM.

As to `C#CCOc1cnc2c(Nc3cc(F)c(F)c([C@@]4(C)N=C(N)S[C@@]5(S(C)(=O)=O)C[C@H]54)c3)nccc2n1` [Example 630, N-(3-((1R,5S,6S)-3-amino-5-methyl-1-(methylsulfonyl)-2-thia-4-azabicyclo[4.1.0]hept-3-en-5-yl)-4,5-difluorophenyl)-2-(2-propyn-1-yloxy)pyrido[3,4-b]pyrazin-5-amine], the IC50 in test [1] turned out to be 0.000443 µM; in test [2], 0.00547 µM; in test [3] it was 74.9 µM; in test [4] it was 0.00528 µM.

As for `C#CCOc1cnc2c(Nc3ccc(F)c([C@@]4(C)N=C(N)S[C@@]5(C(=O)N6CCCC6)C[C@H]54)c3)nccc2n1` [Example 632, N-(3-((1S,5S,6S)-3-amino-5-methyl-1-(1-pyrrolidinylcarbonyl)-2-thia-4-azabicyclo[4.1.0]hept-3-en-5-yl)-4-fluorophenyl)-2-(2-propyn-1-yloxy)pyrido[3,4-b]pyrazin-5-amine], the IC50 in test [1] was found to be 0.000715 µM; in test [2] it was 0.00302 µM; in test [3], 961 µM; in test [4], 0.000535 µM.

Turning to `C#CCOc1cnc(C(=O)Nc2ccc(F)c([C@@]3(C)N=C(N)S[C@@]4(C(=O)N5CCCC5)C[C@H]43)c2)cn1` [Example 633, N-(3-((1S,55,6S)-3-amino-5-methyl-1-(1-pyrrolidinylcarbonyl)-2-thia-4-azabicyclo[4.1.0]hept-3-en-5-yl)-4-fluorophenyl)-5-(2-propyn-1-yloxy)-2-pyrazinecarboxamide], the IC50 was determined as 0.00036 µM in test [1], 0.00165 µM in test [2], 67.5 µM in test [3] and 0.000224 µM in test [4].
